Data taken from patent US8080644B2, “Oligonucleotide analogues” (Exiqon A/S, priority 1997, dated 2011).
Strand notation (5' to 3'): a small letter for the sugar, then the base; units joined by * are phosphorothioate-linked, units joined directly phosphodiester-linked; [ ] holds rarer units or linkages, { } end groups; capitals alone tell only the bases. V = LNA monomer of structure V, bold; X = bicyclic LNA-type nucleotide of structure X in the publication's (LNA marked in bold); Y = bicyclic LNA-type thymidine monomer of structure Y; l = locked nucleic acid (LNA); d = 2'-deoxy (DNA)

What was measured:
5′-(AAAAAAAAAAAAAA)-3′ = test: Tm of duplex (spectrophotometric melting curves); format: binding; conditions: vs RNA 5′-(AAAAAAAAAAAAAA)-3′; 10 mM Na2HPO4 pH 7.0, 100 mM NaCl, 0.1 mM EDTA
Description: (§1) Thermostability of oligonucleotides containing monomers of formula V, X, Y and Z^T, Z^U, Z^G, Z^C, Z^A, Z^MeC. The thermostability of the LNA modified oligonucleotides were determined spectrophotometrically using a spectrophotometer equipped with a thermoregulated Peltier element. Hybridisation mixtures of 1 ml were prepared containing either of 3 different buffers (10 mM Na2HPO4, pH 7.0, 100 mM NaCl, 0.1 mM EDTA; 10 mM Na2HPO4 pH 7.0, 0.1 mM EDTA; 3M tetramethylammoniumchlorid (TMAC), 10 mM Na2HPO4, pH 7.0, 0.1 mM EDTA) and equimolar (1 μM or 1.5 μM) amounts of the different LNA modified oligonucleotides and their complementary or mismatched DNA or RNA oligonucleotides. Identical hybridisation mixtures using the unmodified oligonucleotides were prepared as references. The Tm's were obtained as the first derivative of the melting curves. FIG. 2 illustrates the monomeric LNAs used. The nomenclature V, X, Y and Z^T, Z^U, Z^G, Z^C, Z^A, Z^MeC refer to structures V, X, Y and Z of FIG. 2. In the tables, the nucleobases of the LNA monomers are indicated. Furthermore, for the thio and amino variants of the LNA structure Z of the last two tables, the nomenclature used is, e.g., Z^TS and Z^TNH, respectively.

5′-d(AAAAAAAAAAAAAA)-3′ = test: Tm of duplex (spectrophotometric melting curves); format: binding; conditions: vs 5′-d(AAAAAAAAAAAAAA)-3′; 10 mM Na2HPO4 pH 7.0, 100 mM NaCl, 0.1 mM EDTA
Description: as §1

Substance | Tm (° C.) Na2HPO4/NaCl/EDTA (5′-(AAAAAAAAAAAAAA)-3′) [°C] | Tm (° C.) Na2HPO4/NaCl/EDTA (5′-d(AAAAAAAAAAAAAA)-3′) [°C]
5′-d(TTTTTTTTTTTTTT)-3′ (SEQ ID NO: 80): unmodified poly-T oligonucleotide (Table 1, 42 and 43) (unmodified DNA) [reference compound] | 32 | 36
5′-d(TTTTTTTTTTTTTT)-3′ (SEQ ID NO: 83): partly modified poly-T oligonucleotide with Z^T (44, 45) (DNA dTdTdTdTdTdTlTdTdTdTdTdTdTdT) | 32 | 36
5′-d(TTTTTTTTTTTTTT)-3′ (SEQ ID NO: 86): partly modified poly-T oligonucleotide with Z^T (46, 47) (DNA dTdTdTdTdTdTlTlTdTdTdTdTdTdT) | 40 | 34
5′-d(TTTTTTTTTTTTTT)-3′ (SEQ ID NO: 89): partly modified poly-T oligonucleotide with Z^T (48, 49) (DNA dTdTdTdTdTlTlTlTlTdTdTdTdTdT) | 52 | 42
5′-d(TTTTTTTTTTTTTT)-3′ (SEQ ID NO: 92): partly modified poly-T oligonucleotide with Z^T (50, 51) (DNA dTdTdTdTlTdTlTdTlTdTlTdTdTdT) | 53 | 47
5′-d(TTTTTTTTTTTTTT)-3′ (SEQ ID NO: 98): partly modified poly-T with monomer V (sugars from the 5' end d7 V1 d6, backbone not given here) | 27 | 32
5′-d(TTTTTTTTTTTTTT)-3′ (SEQ ID NO: 101): partly modified poly-T with monomer V (sugars from the 5' end d6 V2 d6, backbone not given here) | 28 | 31
5′-d(TTTTTTTTTTTTTT)-3′ (SEQ ID NO: 104): partly modified poly-T with monomer V (sugars from the 5' end d6 V1 d1 V1 d5, backbone not given here) | 23 | 30
5′-d(TTTTTTTTTTTTTT)-3′ (SEQ ID NO: 107): partly modified poly-T with monomer V (sugars from the 5' end d5 V4 d5, backbone not given here) | 31 | 23
5′-d(TTTTTTTTTTTTTT)-3′ (SEQ ID NO: 110): partly modified poly-T with monomer V (sugars from the 5' end ddddVdVdVdVddd, backbone not given here) | 16 | 23
5′-d(TTTTTTTTTTTTTT)-3′ (SEQ ID NO: 117): poly-T containing X^T (sugars from the 5' end d7 X1 d6, backbone not given here) | 23 | 23
5′-d(TTTTTTTTTTTTTT)-3′ (SEQ ID NO: 120): poly-T containing X^T (sugars from the 5' end d6 X2 d6, backbone not given here) | 23 | 19
5′-d(TTTTTTTTTTTTTT)-3′ (SEQ ID NO: 123): poly-T containing X^T (sugars from the 5' end d6 X1 d1 X1 d5, backbone not given here) | 15 | 9
5′-d(TTTTTTTTTTTTTT)-3′ (SEQ ID NO: 126): poly-T containing X^T (sugars from the 5' end d5 X4 d5, backbone not given here) | 14 | 5
5′-d(TTTTTTTTTTTTTT)-3′ (SEQ ID NO: 129): partly modified poly-T with monomer Y (sugars from the 5' end d7 Y1 d6, backbone not given here) | 37 | 36
5′-d(TTTTTTTTTTTTTT)-3′ (SEQ ID NO: 132): partly modified poly-T with monomer Y (sugars from the 5' end d6 Y2 d6, backbone not given here) | 37 | 35
5′-d(TTTTTTTTTTTTTT)-3′ (SEQ ID NO: 135): partly modified poly-T with monomer Y (sugars from the 5' end d6 Y1 d1 Y1 d5, backbone not given here) | 36 | 35
5′-d(TTTTTTTTTTTTTT)-3′ (SEQ ID NO: 138): partly modified poly-T with monomer Y (sugars from the 5' end d5 Y4 d5, backbone not given here) | 33 | 32
5′-d(TTTTTTTTTTTTTT)-3′ (SEQ ID NO: 141): partly modified poly-T with monomer Y (sugars from the 5' end ddddYdYdYdYddd, backbone not given here) | 36 | 36
5′-d(TTTTTTTTTTTTTT)-3′ (SEQ ID NO: 144): fully modified poly-T oligonucleotide of structure Y (sugars from the 5' end Y13 d1, backbone not given here) | 58 | 58
